According to patent US9840488B2, “Carbon monoxide releasing molecules and associated methods” (Utah State University, priority 2015, dated 2017):
Converted amounts (≈) assume the structure as drawn. “Also recorded” adds a separate entry of the source. Where two headings read alike, the source gives them in different places.

Legend:
[1] = assay type: physicochemical; conditions: for quantum yield Φ of CO-release reaction / eq. CO released: aerobic CH3CN; for eq. CO released: average of three trials
Description: ^1H and ^13C{^1H} NMR spectra (in ppm) were collected using JEOL ECX-300 MHz spectrometer and are referenced to the residual solvent peak in CDCl3 (^1H: 7.26 (singlet) ppm; ^13C 77.16 (singlet) ppm) or DMSO-d6 (^1H: 2.50 ppm (quintet)). J values are given in Hz. IR spectra were collected using a Shimadzu FTIR-8400 as potassium bromide pellets. UV-vis spectra were recorded at ambient temperature using a Hewlett-Packard 8453A diode array spectrophotometer. Fluorescence emission spectra were collected using a Shimadzu RF-530XPC spectrometer in the range of 400-800 nm, with the excitation wavelength corresponding to the absorption maxima of the molecules. The excitation and emission slit widths were set at 1.5 nm for all molecules. Mass spectral data was collected at the Mass Spectrometry Facility, University of California, Riverside. ESI/APCI mass spectra were recorded on an Agilent LCTOF (2006) with a Windows XP based operating system. Elemental analyses were performed by Atlantic Microlab, Inc., Norcross, Ga., using a PE2400 automatic analyzer or at Robertson Microlit Laboratories, Ledgewood, N.J. using a Perkin Elmer CHN Analyzer Model 2400, Series II. […] Quantum yields were determined using potassium ferrioxalate or potassium reinekate as standards to measure photon flux.^[36] Carbon monoxide was quantified as previously described.^[37] […]
A solution of 5 in CD3CN (˜3 mM) was prepared in air under minimal red light and placed in an NMR tube. The NMR tube was then covered with foil, placed in a photo reactor, and irradiated using 419 nm lamps for 24 hours.
A solution of 5 in CD3CN (˜3 mM) was prepared under N2 in a glove box and placed in an NMR tube. The NMR tube was then placed in a photo reactor and irradiated using 419 nm lamps for 24 hours. […]

[2] = target: T1, bovine serum albumin (BSA) (Bos taurus, UniProt P02769); test: BSA binding by fluorescence quenching, competitive binding and docking
T1 sequence (P02769 25-607): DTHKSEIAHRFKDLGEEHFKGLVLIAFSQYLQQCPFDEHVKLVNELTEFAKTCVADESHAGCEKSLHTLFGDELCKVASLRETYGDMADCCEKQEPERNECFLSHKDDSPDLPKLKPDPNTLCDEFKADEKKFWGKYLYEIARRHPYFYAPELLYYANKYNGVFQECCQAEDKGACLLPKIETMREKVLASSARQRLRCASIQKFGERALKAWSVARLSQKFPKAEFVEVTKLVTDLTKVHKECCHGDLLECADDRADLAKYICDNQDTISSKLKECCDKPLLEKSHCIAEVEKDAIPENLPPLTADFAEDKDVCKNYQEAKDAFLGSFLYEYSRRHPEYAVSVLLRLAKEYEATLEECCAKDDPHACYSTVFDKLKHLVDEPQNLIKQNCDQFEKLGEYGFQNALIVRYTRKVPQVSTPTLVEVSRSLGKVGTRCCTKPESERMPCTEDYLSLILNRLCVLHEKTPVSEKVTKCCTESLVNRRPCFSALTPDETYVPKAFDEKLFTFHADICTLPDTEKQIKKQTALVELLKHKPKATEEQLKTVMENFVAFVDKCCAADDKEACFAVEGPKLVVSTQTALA

S. aureus (ATCC 25923) = test: Minimum inhibitory concentration, blue light vs dark; assay type: cell-based; set-up: key to Minimum inhibitory concentration (MIC): †: No inhibitory effect against bacterial strain
E. coli (ATCC 25922) = test: as above; assay type: cell-based; set-up: key to Minimum inhibitory concentration (MIC): †: No inhibitory effect against bacterial strain
[3] = system: A549 human adenocarcinoma cells; test: MTT cell viability assay, A549 cells; assay type: cell-based
Description: (§1) Jurkat (JM) cells were maintained as previously described by Shorey et al.^[39] A549 human adenocarcinoma cells (ATCC, Manassas, Va.) cells were grown in DMEM/Ham's F-12 1:1 mixture medium supplemented with 10% charcoal-stripped, heat-inactivated fetal bovine serum (FBS; Caisson Laboratories, Logan, Utah) in a humidified incubator at 37° C. with 5% CO2. Cytotoxicity was determined by the colorimetric MTT [3-(4,5-dimethyl-2-thiazolyl)-2,5-diphenyl-2H-tetrazoluim bromide] assay as previously describe.^[40] Briefly, 2.1×10^3 cells/ml for A549 cells or 1×10^5 cells/ml for Jurkat cells. Test compounds were prepared in DMSO, then added to culture media for a maximum final DMSO concentration not greater than 0.1% (v/v). After addition of test compounds at concentrations ranging from 80 nM to 100 μM, cells were incubated for 24 h in the dark, then treated with MTT to assess cell viability as outlined previously.^[40] All experiments were independently replicated three times, and each experimental treatment was performed in triplicate.

A549 cells = test: Cellular uptake by fluorescence microscopy; assay type: cell-based, human
Description: A549 cells were maintained in culture as described above, then seeded into seeded into Millicell E-Z-Slide culture chambers (EMD Millipore, Billerica, Mass.) at an initial density of 7.5×10^4 cells/cm^2 and allowed to adhere to the chamber slides for 24 hr. The cells were then treated for 1 hr with the nuclear dye Hoechst 33342 (0.5% v/v) for 10 min, followed by three washes with plain culture media to remove residual dye. All of incubation and wash steps described below were performed in the dark with minimal light exposure. A 100 mM stock solution of compound 5 was prepared in DMSO and then diluted to a working concentration of 2 mM in culture media (DMEM/Ham's F-12). The compound 5 working stock was diluted again to a final concentration of 50 μM in the culture chamber media, and the cells were incubated for 1 hr. The culture chamber was then gently washed thrice with plain culture media. Cells were fixed with a 1:10 (v/v) solution of formaldehyde fixative (Immunochemistry Technologies, Bloomington, Minn.) and culture media for 5 min, then washed twice with plain culture media. Finally, cells were imaged using a Zeiss Axio Observer inverted microscope (Carl Zeiss Microscopy, Thornwood, N.Y.) equipped with fluorescence detection. Images were acquired using a 10× objective with excitation λ of 450-490 nm (BP 470/40 filter) and emission λ of 500-550 nm (BP 525/50 filter) for detection of compound 5 in A549 cells following 30 sec, 3 min or 10 min exposure to visible light. Also, for localization of the Hoechst dye, a single fluorescence image was acquired at excitation λ at 365 nm; emission λ of 420-470 nm (BP 445/50 filter). Acquired images were universally adjusted to enhance contrast levels (same settings for all acquired images for each detection channel) using Adobe Photoshop CS6 (Adobe, San Jose, Calif.).

[4] = Solubility and solution stability
Jurkat (JM) cells = test: MTT cell viability assay, Jurkat cells; assay type: cell-based, human
Description: as §1

[5] = system: S. aureus (ATCC 33591-MRSA); test: Minimum inhibitory concentration, blue light vs dark; assay type: cell-based; set-up: key to Minimum inhibitory concentration (MIC): †: No inhibitory effect against bacterial strain
[6] = target: T1, bovine serum albumin (BSA); conditions: literature value, cited from earlier work

3-acetate-2-phenyl-benzo[g]chromen-4-one [Compound 12]
stability to visible light relative to 5 [1]: significantly more stable

O=c1c(O)c(-c2ccccc2)oc2ccccc12 [3-hydroxyflavone, reference compound]
eq. CO generated ([1]; photoinduced reaction with O2, λirr=300 nm): 0.95 eq

O=c1c(O)c(-c2ccccc2)oc2cc3ccccc3cc12 [Compound 5, 3-Hydroxy-2-phenyl-benzo[g]chromen-4-one]
binding site on BSA ([2]; competitive binding with warfarin and ibuprofen, AutoDock Vina docking): site 1 (subdomain II A) | binding affinity to BSA ([2]; fluorescence quenching, single binding site): 3200 M⁻¹ | Minimum inhibitory concentration (MIC) (S. aureus (ATCC 25923); Dark Conditions): † | MIC (S. aureus (ATCC 25923); Staphylococcus aureus, ATCC25923, Light Conditions (blue light)): 39.4 µg/mL (≈ 137 µM) | Minimum inhibitory concentration (MIC) (E. coli (ATCC 25922); Dark Conditions): † | MIC (E. coli (ATCC 25922); Escherichia coli, ATCC25922, Light Conditions (blue light)): 27.8 µg/mL (≈ 96.4 µM) | dark control reaction ([1]; CD3CN in air, tube covered with foil, 419 nm lamps, 24 hours, 1H NMR): no reaction had occurred | anaerobic control reaction ([1]; CD3CN under N2, 419 nm lamps, 24 hours, 1H NMR): no reaction had occurred | quantum yield Φ of CO-release reaction ([1]; 419 nm irradiation): 0.007(3) | eq. CO released ([1]; 419 nm irradiation): 0.96(2) eq | decrease in the rate of light induced CO-release on binding to BSA ([1]; compound bound to BSA): two-fold | photoinduced CO-release reaction in other solvents ([1]; methanol and 1:1 H2O:DMSO, 1H NMR and GC head space gas analysis): same reaction occurs | toxicity by MTT cell viability assay [3]: minimal toxicity | IC50 ([3]; Homo sapiens, 24 h in the dark, MTT): 41.5 µM | melting point: 208 to 210 °C | cellular uptake / cell permeability (A549 cells; 50 μM, 1 hr incubation): cell permeable; also recorded: taken up by almost all cells | intracellular localization (A549 cells; 1 hr incubation): localized primarily to the cytoplasm | loss of green fluorescence in cells on exposure to visible light (A549 cells; ten minutes visible light): complete loss | solubility in aqueous DMSO ([4]; 1:1 H2O:DMSO, 0.1% DMSO/RPMI cell culture media): soluble | solubility in organic solvents ([4]; CH3CN, CH2Cl2, CHCl3, DMSO): readily soluble | solution stability in the presence of ambient O2 ([4]; acetonitrile, 1:1 DMSO:H2O, or 0.1% DMSO:cell culture media (RPMI-1640; pH=7.4), protected from light): > 2 weeks | toxicity by MTT cell viability assay (Jurkat (JM) cells): minimal toxicity | Minimum inhibitory concentration (MIC) ([5]; Dark Conditions): † | MIC ([5]; Staphylococcus aureus, Light Conditions (blue light)): 55.5 µg/mL (≈ 193 µM)

O=C(Oc1cc2ccccc2cc1C(=O)O)c1ccccc1 [Compound 6, 3-(benzoyloxy)-2-naphthoic acid]
toxicity by MTT cell viability assay [3]: completely non-toxic | toxicity by MTT cell viability assay (Jurkat (JM) cells): completely non-toxic

CCN(CC)c1ccc(-c2oc3cc4ccccc4cc3c(=O)c2O)cc1 [Compound 7, 2-(4-(diethylamino)phenyl)-3-hydroxy-4H-benzo[g]chromen-4-one]
quantum yield Φ of CO-release reaction ([1]; 419 nm irradiation): 0.006(1) | eq. CO released ([1]; 419 nm irradiation): 0.99(1) eq | melting point: 191 to 192 °C

Oc1c(-c2ccccc2)oc2cc3ccccc3cc2c1=S [Compound 8, 3-Hydroxy-2-phenyl-4H-benzo[g]chromene-4-thione]
quantum yield Φ of CO-release reaction ([1]; 419 nm irradiation): 0.426(3) | eq. CO released ([1]; 419 nm irradiation): 1.01(1) eq

CCN(CC)c1ccc(-c2oc3cc4ccccc4cc3c(=S)c2O)cc1 [Compound 9, 2-(4-(diethylamino)phenyl)-3-hydroxy-4H-benzo[g]chromene-4-thione]
quantum yield Φ of CO-release reaction ([1]; >546 nm irradiation): 0.20(1) | eq. CO released ([1]; >546 nm irradiation): 1.01(1) eq

COc1cccc2c1C(=O)c1c(O)c3c(c(O)c1C2=O)C[C@@](O)(C(=O)CO)C[C@@H]3O[C@H]1C[C@H](N)[C@H](O)[C@H](C)O1 [doxorubicin]
binding affinity to BSA [6]: 7300 M⁻¹

O=c1c(O)c(-c2ccc(O)c(O)c2)oc2cc(O)cc(O)c12 [quercetin]
binding affinity to BSA ([6]; unit not given): 3.65×10^7
